The values that follow come from patent US6589970B2, “6-(aryl-amido or aryl-amidomethyl)-naphthalen-2-yloxy-acidic derivatives as inhibitors of plasminogen activator inhibitor type-1 (PAI-1)” (Wyeth, priority 2001, dated 2003).

The target in data set [1] is T1, recombinant human plasminogen activator inhibitor-1 (PAI-1) (Homo sapiens, UniProt P05121).
T1 construct: purchased Molecular Innovations, Royal Oak, Mich
Put plainly: Primary Screen for the PAI-1 Inhibition. The note with it: for inhibition at 25 µM / % Inhib. 25 μM: 25 μM test compound; for inhibition at 25 µM: read-out: % Inhib. 25 μM; for inhibition at 100 µM / % Inhib. 100 μM: 100 μM test compound; for inhibition at 100 µM: read-out: % Inhib. 100 μM. It counts as biochemical. On the procedure:
Test compounds are dissolved in DMSO at a final concentration of 10 mM, then diluted 100× in physiologic buffer. The inhibitory assay is initiated by the addition of the test compound (1-100 μM final concentration, maximum DMSO concentration of 0.2%) in a pH 6.6 buffer containing 140 nM recombinant human plasminogen activator inhibitor-1 (PAI-1; Molecular Innovations, Royal Oak, Mich.). Following a 1 hour incubation at room temperature, 70 nM of recombinant human tissue plasminogen activator (tPA) is added, and the combination of the test compound, PAI-1 and tPA is incubated for an additional 30 minutes. Following the second incubation, Spectrozyme-tPA (American Diagnostica, Greenwich, Conn.), a chromogenic substrate for tPA, is added and absorbance read at 405 nm at 0 and 60 minutes. Relative PAI-1 inhibition is equal to the residual tPA activity in the presence of the test compound and PAI-1. Control treatments include the complete inhibition of tPA by PAI-1 at the molar ratio employed (2:1), and the absence of any effect of the test compound on tPA alone.

Where a name gives a salt, the structure may show the parent alone. A value given as a limit tells only on which side of the number the result lay.

T1 sequence (P05121 24-402): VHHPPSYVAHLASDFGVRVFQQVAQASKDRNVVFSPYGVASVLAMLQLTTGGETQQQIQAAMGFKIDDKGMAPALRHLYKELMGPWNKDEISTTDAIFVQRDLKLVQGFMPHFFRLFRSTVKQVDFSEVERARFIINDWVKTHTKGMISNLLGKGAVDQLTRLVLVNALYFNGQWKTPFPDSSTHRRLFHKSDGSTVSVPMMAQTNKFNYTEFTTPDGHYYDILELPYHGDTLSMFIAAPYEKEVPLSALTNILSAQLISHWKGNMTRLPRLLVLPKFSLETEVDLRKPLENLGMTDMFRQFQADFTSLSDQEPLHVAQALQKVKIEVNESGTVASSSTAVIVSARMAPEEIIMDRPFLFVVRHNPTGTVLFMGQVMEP

In the case of `CN(Cc1ccc2c(Br)c(OCC(=O)O)ccc2c1)C(=O)c1oc2ccccc2c1CCc1ccccc1` [Example 47, (1-Bromo-6-{[methyl-(3-phenethyl-benzofuran-2-carbonyl)-amino]-methyl}-naphthalen-2-yloxy)-acetic acid], the melting point – broadly, the temperature, or range, at which the solid turns liquid – lay in the range of 119 to 122 °C. Also, in data set [1], the inhibition at 25 µM is 59% and the inhibition at 100 µM was 90%.

The compound `CCCc1c(C(=O)NCc2ccc3c(Br)c(OCc4nnn[nH]4)ccc3c2)cnn1-c1ccccc1` [Example 22, 1-Phenyl-5-propyl-1H-pyrazole-4-carboxylic acid [5-bromo-6-(1H-tetrazol-5-ylmethoxy)-naphthalen-2-ylmethyl]-amide] displayed a melting point of 219 to 220 °C. Further, in data set [1], the inhibition at 25 µM came out at 12% and the inhibition at 100 µM is 70%.

Take `CN(Cc1ccc2c(Br)c(OC(Cc3ccccc3)C(=O)O)ccc2c1)C(=O)c1oc2ccccc2c1CCc1ccccc1` (centres unmarked) [Example 46, 2-(1-Bromo-6-{[methyl-(3-phenethyl-benzofuran-2-carbonyl)-amino]-methyl}-naphthalen-2-yloxy)-3-phenyl-propionic acid]: the melting point is 87 to 90 °C. Also, in data set [1], the inhibition at 25 µM is 58% and the inhibition at 100 µM turned out to be 88%.

Turning to `CCCCc1oc2ccccc2c1C(=O)NCc1ccc2c(Br)c(OCC(=O)O)ccc2c1` (as salt: sodium) [Example 19, Sodium; (1-bromo-6-{[(2-butyl-benzofuran-3-carbonyl)-amino]-methyl}-naphthalen-2-yloxy)-acetate], the melting point stood at 260 °C.

Compound `CCCCc1oc2ccccc2c1C(=O)Nc1ccc2c(Br)c(OCC(=O)O)ccc2c1` (as salt: sodium) [Example 6, {1-Bromo-6-[(2-butyl-benzofuran-3-carbonyl)-amino]-naphthalen-2-yloxy}-acetic acid sodium salt] came in with a melting point of 284 to 287 °C.

Take `Cc1c(C(=O)NCc2ccc3c(Br)c(OC(Cc4ccccc4)C(=O)O)ccc3c2)oc2ccccc12` (centres unmarked) [Example 44, 2-(1-Bromo-6-{[(3-methyl-benzofuran-2-carbonyl)-amino]-methyl}-naphthalen-2-yloxy)-3-phenyl-propionic acid]: the melting point was 110 to 113 °C.

On to `CCCCc1oc2ccccc2c1C(=O)NCc1ccc2c(-c3ccc(C)cc3)c(OCc3nnn[nH]3)ccc2c1` [Example 23, 2-Butyl-benzofuran-3-carboxylic acid [6-(1H-tetrazol-5-ylmethoxy)-5-p-tolyl-naphthalen-2-ylmethyl]-amide], for which the melting point was 162 to 166 °C. Besides, the inhibition at 100 µM in data set [1] was 48%.

In the case of `CCCCc1oc2ccccc2c1C(=O)NCc1ccc2cc(OCC(=O)[O-])ccc2c1.[Na+]` [Example 9, Sodium; (6-{[(2-butyl-benzofuran-3-carbonyl)-amino]-methyl}-naphthalen-2-yloxy)-acetate], the melting point was over 275 °C. Besides, in data set [1], the inhibition at 25 µM came to 28% and the inhibition at 100 µM stood at 89%.

`CCCCc1oc2ccccc2c1C(=O)NCc1ccc2c(-c3ccc(C(C)(C)C)cc3)c(OCc3nnn[nH]3)ccc2c1` [Example 27, 2-Butyl-benzofuran-3-carboxylic acid [5-(4-tert-butyl-phenyl)-6-(1H-tetrazol-5-ylmethoxy)-naphthalen-2-ylmethyl]-amide] came in with a melting point of 75 to 78 °C. The inhibition at 100 µM in data set [1] was determined as 39%.

`CCCCc1oc2ccccc2c1C(=O)Nc1ccc2c(Br)c(OCc3nn[nH]n3)ccc2c1` [Example 5, 2-Butyl-benzofuran-3-carboxylic acid [5-bromo-6-(2H-tetrazol-5-ylmethoxy)-naphthalen-2-yl]-amide] registered a melting point of 242 to 245 °C. The inhibition at 100 µM in data set [1] worked out at 47%.

The compound `Cc1c(C(=O)NCc2ccc3c(Br)c(OCc4nnn[nH]4)ccc3c2)oc2ccccc12` [Example 43, 3-Methyl-benzofuran-2-carboxylic acid [5-bromo-6-(1H-tetrazol-5-ylmethoxy)-naphthalen-2-ylmethyl]-amide] had a melting point of 212 to 215 °C. Besides, in data set [1], the inhibition at 25 µM was 47% and the inhibition at 100 µM was 71%.

On to `CCCCc1oc2ccccc2c1C(=O)NCc1ccc2cc(OCc3nnn[nH]3)ccc2c1` (as salt: sodium) [Example 8, 2-Butyl-benzofuran-3-carboxylic acid [6-(1H-tetrazol-5-ylmethoxy)-naphthalen-2-ylmethyl]-amide sodium salt], for which the melting point is 207 to 210 °C.

The compound `CCCCc1oc2ccccc2c1C(=O)NCc1ccc2c(-c3ccc(OC)cc3)c(OCc3nnn[nH]3)ccc2c1` (as salt: sodium) [Example 25, 2-Butyl-benzofuran-3-carboxylic [5-(4-methoxy phenyl)-6-(1H-tetrazol-5-ylmethoxy)-naphthalen-2-ylmethyl]-amide, sodium salt] yielded a melting point of 147 to 152 °C.

As for `CCCCc1oc2ccccc2c1C(=O)N(CC)Cc1ccc2cc(OCc3nnn[nH]3)ccc2c1` [Example 35, 2-Butyl-benzofuran-3-carboxylic acid methyl-[6-(1H-tetrazol-5-ylmethoxy)-naphthalen-2ylmethyl]-methyl-amide], in data set [1], the inhibition at 25 µM came out at 26% and the inhibition at 100 µM came out at 72%.

Consider `O=C(O)COc1ccc2cc(NC(=O)C3(c4ccc(Cl)cc4)CCC3)ccc2c1` [Example 80, (6-{[1-(4-Chloro-phenyl)-cyclobutanecarbonyl]-amino}-naphthalen-2-yloxy)-acetic acid], for which, in data set [1], the inhibition at 100 µM worked out at 48%.

Turning to `O=C(O)COc1ccc2cc(NC(=O)c3ccccc3OCc3ccccc3)ccc2c1` [Example 76], in data set [1], the “% Inhib. 25 μM” value is on record as 0% and the “% Inhib. 100 μM” value was 54%.

Consider `O=C(O)COc1ccc2cc(CNC(=O)c3ccccc3CCc3ccccc3)ccc2c1` [Example 83, {6-[(2-Phenethyl-benzoylamino)-methyl]-naphthalen-2-yloxy}-acetic acid], for which the inhibition at 100 µM in data set [1] came to 45%.

Consider `O=C(O)COc1ccc2cc(CNC(=O)c3ccc(-c4cccc(C(F)(F)F)c4)o3)ccc2c1` [Example 85, [6-({[5-(3-Trifluoromethyl-phenyl)-furan-2-carbonyl]-amino}-methyl)-naphthalen-2-yloxy]-acetic acid], for which, in data set [1], the inhibition at 100 µM is 34%.

`CCCc1ccc(-c2ccc(C(=O)N(C)Cc3ccc4c(Br)c(OC(Cc5ccccc5)C(=O)O)ccc4c3)cc2)cc1` (centres unmarked) [Example 63, 2-(1-Bromo-6-{[methyl-(4′-propyl-biphenyl-4-carbonyl)-amino]-methyl}-naphthalen-2-yloxy)-3-phenyl-propionic acid]: in data set [1], the inhibition at 25 µM came out at 14% and the inhibition at 100 µM came to 69%.

On to `O=C(O)C(Cc1ccccc1)Oc1ccc2cc(CNC(=O)C3(c4ccc(Cl)cc4)CCCC3)ccc2c1Br` (centres unmarked) [Example 59], for which, in data set [1], the “% Inhib. 100 μM” value is 44%.

`CCCc1c(C(=O)N(Cc2ccccc2)Cc2ccc3c(Br)c(OC(Cc4ccccc4)C(=O)O)ccc3c2)cnn1-c1ccccc1` (centres unmarked) [Example 72, 2-(6-{[Benzyl-(1-phenyl-5-propyl-1H-pyrozole-4-carbonyl)-amino]-methyl}-1-bromo-naphthalen-2-yloxy)-3-phenyl-propionic acid]: in data set [1], the “% Inhib. 25 μM” value was found to be 56% and the “% Inhib. 100 μM” value turned out to be 68%.
